Experiments:
[1] = LNP hydrodynamic diameter and polydispersity index by dynamic light scattering (DLS); format: physicochemical; conditions: for Diameter (nm): hydrodynamic diameter of the LNP preparation with the ionizable lipid; for PDI: polydispersity index of the LNP preparation with the ionizable lipid
Method in brief: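 LNPs were mixed at a 3:1 aqueous:organic ratio, diluted in TBS and dialysed against TBS at 4° C. for 8 to 24 hours (20 kDa). Hydrodynamic diameter and PDI were then measured by high-throughput DLS after dilution in 1×PBS.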

ALAS1 target site = assay: Base editing in liver by LNP-delivered ABE mRNA and sgRNA, targeted deep sequencing; format: in vivo; conditions: LNP with the ionizable lipid, ABE mRNA + sgRNA targeting ALAS1 1:1; tail vein injection, Balb/c mice; 0.05 mg/kg; tissues four to six days post-dose
[2] = Encapsulation efficiency of LNP preparations (Ribogreen assay; Qubit, unlysed and lysed LNPs); format: physicochemical; conditions: LNP preparation with the ionizable lipid, ABE mRNA:sgRNA 1:1, except 7-1, 7-2, 7-6, 7-10 (unlysed and lysed LNPs, Qubit)
Method in brief: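 LNPs of ionizable lipid, cholesterol, PEG2000-DMG and DSPC (47.5:40:2.5:10 mol%) were made by microfluidic mixing with base-editor mRNA plus sgRNA (1:1 mass) in 50 mM citrate, pH 4.0, at total lipid:NA molar ratio 6 to 12. Encapsulation was read by Ribogreen, or for lipids 7-1, 7-2, 7-6 and 7-10 by Qubit on unlysed versus lysed LNPs.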

| Diameter (nm) [1] [nm] | PDI [1] | Encapsulation Efficiency (%) [2] [%] | SMILES | % Editing in Liver (0.05 mpk) (ALAS1 target site) [%] |
| --- | --- | --- | --- | --- |
| 57 | 0.06 | 96.3 | CC/C=C\CCCCOC(CCC(=O)OCC(COC(=O)CCCCCCOC(=O)C(CCCC)CCCCCC)COC(=O)CCC(CCCCCC)OC(=O)CCCN1CCCC1)OCCCC/C=C\CC (stereo not drawn) [Compound 7-49, 3-((4,4-bis(((Z)-oct-5-en-1-yl)oxy)butanoyl)oxy)-2-(((7-((2-butyloctanoyl)oxy)heptanoyl)oxy)methyl)propyl 4-((4-(pyrrolidin-1-yl)butanoyl)oxy)decanoate] | 6.6 |
| 53.45 | 0.09 | 96.6 | CC/C=C\CCCCOC(CCC(=O)OCC(COC(=O)CCCCCCOC(=O)C(CCCC)CCCCCC)COC(=O)CCC(CCCCCCC)OC(=O)NCCN1CCCC1)OCCCC/C=C\CC (stereo not drawn) [Compound 7-50, 3-((4,4-bis(((Z)-oct-5-en-1-yl)oxy)butanoyl)oxy)-2-(((7-((2-butyloctanoyl)oxy)heptanoyl)oxy)methyl)propyl 4-(((2-(pyrrolidin-1-yl)ethyl)carbamoyl)oxy)undecanoate] | 4.0 |
| 51.15 | 0.08 | 96.6 | CC/C=C\CCCCOC(CCC(=O)OCC(COC(=O)CCCCCCOC(=O)C(CCCC)CCCCCC)COC(=O)CCC(CCCCCCCC)OC(=O)NCCN1CCCC1)OCCCC/C=C\CC (stereo not drawn) [Compound 7-51, 3-((4,4-bis(((Z)-oct-5-en-1-yl)oxy)butanoyl)oxy)-2-(((7-((2-butyloctanoyl)oxy)heptanoyl)oxy)methyl)propyl 4-(((2-(pyrrolidin-1-yl)ethyl)carbamoyl)oxy)dodecanoate] | 1.0 |
